Measurements taken from PubChem BioAssay (NCI).
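A five-concentration, 48-hour dose response in 96-well plates underlies each endpoint, interpolated linearly between surrounding concentrations. The concentration for 50% growth inhibition is given as GI50. TGI: concentration producing complete growth inhibition.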

How the values were obtained:
Assay in all cases: DTP human tumour cell line panel, 48 h
LOX IMVI melanoma = system: LOX IMVI melanoma
SK-MEL-2 melanoma = system: SK-MEL-2 melanoma
T-47D breast = system: T-47D breast
MOLT-4 leukemia = system: MOLT-4 leukemia
MDA-MB-231 breast = system: MDA-MB-231 breast
U251 CNS = system: U251 CNS
OVCAR-4 ovarian = system: OVCAR-4 ovarian
NCI-H23 lung = system: NCI-H23 lung
CCRF-CEM leukemia = system: CCRF-CEM leukemia
HCT-116 colon = system: HCT-116 colon
IGROV1 ovarian = system: IGROV1 ovarian
BT-549 breast = system: BT-549 breast
EKVX NSCLC = system: EKVX NSCLC
SF-295 CNS = system: SF-295 CNS
HS 578T breast = system: HS 578T breast
UACC-62 melanoma = system: UACC-62 melanoma
OVCAR-3 ovarian = system: OVCAR-3 ovarian
RXF 393 renal = system: RXF 393 renal
HCT-15 colon = system: HCT-15 colon
ACHN renal = system: ACHN renal
PC-3 prostate = system: PC-3 prostate
SNB-75 CNS = system: SNB-75 CNS
A549 NSCLC = system: A549 NSCLC
SF-539 CNS = system: SF-539 CNS
M14 melanoma = system: M14 melanoma
KM12 colon = system: KM12 colon
SK-MEL-28 melanoma = system: SK-MEL-28 melanoma
SK-OV-3 ovarian = system: SK-OV-3 ovarian
SF-268 CNS = system: SF-268 CNS
NCI-H460 lung = system: NCI-H460 lung
OVCAR-8 ovarian = system: OVCAR-8 ovarian
TK-10 renal = system: TK-10 renal
NCI-H522 lung = system: NCI-H522 lung
SK-MEL-5 melanoma = system: SK-MEL-5 melanoma
A498 renal = system: A498 renal
HCC-2998 colon = system: HCC-2998 colon
NCI/ADR-RES ovarian = system: NCI/ADR-RES ovarian
SW-620 colon = system: SW-620 colon
CAKI-1 renal = system: CAKI-1 renal
COLO 205 colon = system: COLO 205 colon
K-562 leukemia = system: K-562 leukemia
MCF7 breast = system: MCF7 breast
SN12C renal = system: SN12C renal
MDA-MB-435 = system: MDA-MB-435
UACC-257 melanoma = system: UACC-257 melanoma
HOP-92 NSCLC = system: HOP-92 NSCLC
HOP-62 NSCLC = system: HOP-62 NSCLC
OVCAR-5 ovarian = system: OVCAR-5 ovarian
786-0 renal = system: 786-0 renal
SNB-19 CNS = system: SNB-19 CNS
DU-145 prostate = system: DU-145 prostate
HT29 colon = system: HT29 colon
UO-31 renal = system: UO-31 renal
SR leukemia = system: SR leukemia
MALME-3M melanoma = system: MALME-3M melanoma
RPMI-8226 leukemia = system: RPMI-8226 leukemia
HL-60(TB) leukemia = system: HL-60(TB) leukemia
NCI-H226 lung = system: NCI-H226 lung

## CCc1c(-c2ccc(OC)cc2)oc(OC)c(C)c1=O
LOX IMVI melanoma
  TGI: > 100 µM
SK-MEL-2 melanoma
  TGI: > 100 µM
T-47D breast
  TGI: > 100 µM
MOLT-4 leukemia
  TGI: > 100 µM
MDA-MB-231 breast
  TGI: > 100 µM
U251 CNS
  TGI: > 100 µM
OVCAR-4 ovarian
  TGI: > 100 µM
NCI-H23 lung
  TGI: > 100 µM
CCRF-CEM leukemia
  TGI: > 100 µM
HCT-116 colon
  TGI: > 100 µM
IGROV1 ovarian
  TGI: > 100 µM
BT-549 breast
  TGI: > 100 µM
EKVX NSCLC
  TGI: > 100 µM
SF-295 CNS
  TGI: > 100 µM
HS 578T breast
  TGI: > 100 µM
UACC-62 melanoma
  TGI: > 100 µM
OVCAR-3 ovarian
  TGI: > 100 µM
RXF 393 renal
  TGI: > 100 µM
HCT-15 colon
  TGI: > 100 µM
ACHN renal
  TGI: > 100 µM
PC-3 prostate
  TGI: > 100 µM
SNB-75 CNS
  TGI: > 100 µM
A549 NSCLC
  TGI: > 100 µM
SF-539 CNS
  TGI: > 100 µM
M14 melanoma
  TGI: > 100 µM
KM12 colon
  TGI: > 100 µM
SK-MEL-28 melanoma
  TGI: > 100 µM
SK-OV-3 ovarian
  TGI: > 100 µM
SF-268 CNS
  TGI: > 100 µM
NCI-H460 lung
  TGI: > 100 µM
OVCAR-8 ovarian
  TGI: > 100 µM
TK-10 renal
  TGI: > 100 µM
NCI-H522 lung
  TGI: > 100 µM
SK-MEL-5 melanoma
  TGI: > 100 µM
A498 renal
  TGI: > 100 µM
HCC-2998 colon
  TGI: > 100 µM
NCI/ADR-RES ovarian
  TGI: > 100 µM
SW-620 colon
  TGI: > 100 µM
CAKI-1 renal
  TGI: > 100 µM
COLO 205 colon
  TGI: > 100 µM
K-562 leukemia
  TGI: > 100 µM
MCF7 breast
  TGI: > 100 µM
SN12C renal
  TGI: > 100 µM
MDA-MB-435
  TGI: > 100 µM
UACC-257 melanoma
  TGI: > 100 µM
HOP-92 NSCLC
  TGI: > 100 µM
HOP-62 NSCLC
  TGI: > 100 µM
OVCAR-5 ovarian
  TGI: > 100 µM
786-0 renal
  TGI: > 100 µM
SNB-19 CNS
  TGI: > 100 µM
DU-145 prostate
  TGI: > 100 µM
HT29 colon
  TGI: > 100 µM
UO-31 renal
  TGI: > 100 µM

## CC(C)(C)OC(=O)NCc1cccc(N=C=S)c1
LOX IMVI melanoma
  GI50: 16.7 µM
  TGI: 31.9 µM
SK-MEL-2 melanoma
  GI50: 21.3 µM
  TGI: 45.7 µM
T-47D breast
  GI50: 16.5 µM
  TGI: 36.6 µM
MOLT-4 leukemia
  GI50: 19.7 µM
  TGI: 53.6 µM
MDA-MB-231 breast
  GI50: 25.7 µM
  TGI: > 85.7 µM
U251 CNS
  GI50: 23 µM
  TGI: 53.4 µM
OVCAR-4 ovarian
  GI50: 16.7 µM
  TGI: 51.8 µM
NCI-H23 lung
  GI50: 18.5 µM
  TGI: 47.6 µM
CCRF-CEM leukemia
  GI50: 21 µM
  TGI: 55.9 µM
SR leukemia
  GI50: 20 µM
  TGI: > 81.9 µM
HCT-116 colon
  GI50: 18 µM
  TGI: 36 µM
IGROV1 ovarian
  GI50: 19.3 µM
  TGI: 41.8 µM
BT-549 breast
  GI50: 19.2 µM
  TGI: 44.2 µM
EKVX NSCLC
  GI50: 23.4 µM
  TGI: 61 µM
SF-295 CNS
  GI50: 17.5 µM
  TGI: 40.9 µM
MALME-3M melanoma
  GI50: 14.4 µM
  TGI: 45.1 µM
HS 578T breast
  GI50: 24.6 µM
  TGI: > 84.8 µM
UACC-62 melanoma
  GI50: 14.4 µM
  TGI: 30.6 µM
OVCAR-3 ovarian
  GI50: 16.4 µM
  TGI: 31.2 µM
RXF 393 renal
  GI50: 16.8 µM
  TGI: 36.1 µM
HCT-15 colon
  GI50: 16.6 µM
  TGI: 36.5 µM
ACHN renal
  GI50: 21.1 µM
  TGI: 67.6 µM
PC-3 prostate
  GI50: 21.5 µM
  TGI: 51.8 µM
SNB-75 CNS
  GI50: 14.1 µM
  TGI: > 59.6 µM
A549 NSCLC
  GI50: 28 µM
  TGI: 72.1 µM
SF-539 CNS
  GI50: 21.1 µM
  TGI: 59.7 µM
M14 melanoma
  GI50: 15.3 µM
  TGI: 37 µM
KM12 colon
  GI50: 16.5 µM
  TGI: 32.8 µM
SK-MEL-28 melanoma
  GI50: 16.9 µM
  TGI: 37.7 µM
SK-OV-3 ovarian
  GI50: 35.5 µM
  TGI: > 84.9 µM
SF-268 CNS
  GI50: 21 µM
  TGI: 64.9 µM
NCI-H460 lung
  GI50: 20.5 µM
  TGI: 46.1 µM
OVCAR-8 ovarian
  GI50: 29.6 µM
  TGI: > 92.7 µM
TK-10 renal
  GI50: 25.8 µM
  TGI: 70.8 µM
NCI-H522 lung
  GI50: 17.4 µM
  TGI: 44.1 µM
SK-MEL-5 melanoma
  GI50: 14.9 µM
  TGI: 28.4 µM
HCC-2998 colon
  GI50: 16.3 µM
  TGI: 30.9 µM
NCI/ADR-RES ovarian
  GI50: 26.2 µM
  TGI: 79.4 µM
SW-620 colon
  GI50: 18.9 µM
  TGI: 47.7 µM
CAKI-1 renal
  GI50: 20.5 µM
  TGI: 53.9 µM
COLO 205 colon
  GI50: 15.7 µM
  TGI: 33.9 µM
K-562 leukemia
  GI50: 28.4 µM
  TGI: > 88.2 µM
MCF7 breast
  GI50: 16.6 µM
  TGI: 42.4 µM
SN12C renal
  GI50: 22.1 µM
  TGI: 60.3 µM
MDA-MB-435
  GI50: 18.5 µM
  TGI: 63.1 µM
UACC-257 melanoma
  GI50: 21.7 µM
  TGI: 54.4 µM
RPMI-8226 leukemia
  GI50: 17.2 µM
  TGI: 56.7 µM
HL-60(TB) leukemia
  GI50: 28.2 µM
  TGI: 69.8 µM
HOP-92 NSCLC
  GI50: 14.6 µM
  TGI: 62.2 µM
HOP-62 NSCLC
  GI50: 21.8 µM
  TGI: 55.8 µM
OVCAR-5 ovarian
  GI50: 20.6 µM
  TGI: 74.9 µM
786-0 renal
  GI50: 21.6 µM
  TGI: 44.1 µM
SNB-19 CNS
  GI50: 17.6 µM
  TGI: 44.7 µM
DU-145 prostate
  GI50: 22.7 µM
  TGI: 59.2 µM
HT29 colon
  GI50: 23.2 µM
  TGI: 54 µM
NCI-H226 lung
  GI50: 19.1 µM
  TGI: 51.4 µM
UO-31 renal
  GI50: 15.4 µM
  TGI: 38.8 µM
